Laboratory results reported in patent US9326506B2, “Preparation method, agricultural composition and applications of natural brassinolide analogs” (CHENGDU NEWSUN CROPSCIENCE CO., LTD, priority 2012, dated 2016).

Test system: rice
Test: Low temperature assay on rice seedlings
Format: in vivo
Procedure: According to a low temperature assay, we measured parameters including plant height, number of leaf, area of leaf, number of tiller, weight of root at low temperature to completely determine effects of the natural brassinolide analogues on the resistance to low temperature of a plant.
The natural brassinolide analogues, BR1, BR2, BR3, BR4, BR5 and BR6, used herein, were those prepared by the method of Example 1. Respectively the analogues were dissolved into 95% (V/V) ethanol solution, and then diluted with pure water to 1 mg/L, 0.1 mg/L, 0.01 mg/L, 0.001 mg/L and 0.0001 mg/L. In addition, pure water was used as a control.
After rice seeds were disinfected by using 5% sodium hypochlorite solution treatment, they were rinsed with distilled water until their pH>7, placed into a petri dish in a dark incubator, and cultured by using water at 30° C.±2° C. for 9 days. Then respectively the nine-day-old etiolated seedlings of rice were immersed in the above solutions containing different concentrations of the natural brassinolide analogues or pure water, and cultured at the temperature of 1° C., 2° C., 3° C., 4° C. and 5° C. for 24 hr. The parameters including plant height, area of leaf and weight of root after 3, 6, 9 and 12 days and number of leaf and number of tiller after 12 days were measured.

Compound `CC(C)[C@H](C)[C@@H](O)[C@H](O)[C@@H](C)[C@H]1CCC2C3COC(=O)C4C[C@H](O)[C@H](O)C[C@]4(C)C3CC[C@@]21C` (stereo partly drawn) [BR1] has an Area of leaf (0.0001 mg/l, 1 °C, 3 days) of 10 cm^2, a Height (0.0001 mg/l, 1 °C, 3 days) of 7.1 cm and a Weight of root (0.0001 mg/l, 1 °C, 3 days) of 2.8 g. It also gave an Area of leaf (0.0001 mg/l, 1 °C, 6 days) of 11.2 cm^2, a Height (0.0001 mg/l, 1 °C, 6 days) of 7.2 cm and a Weight of root (0.0001 mg/l, 1 °C, 6 days) of 3.1 g. For the same compound, the Area of leaf (0.0001 mg/l, 1 °C, 9 days) was 12.4 cm^2, the Height (0.0001 mg/l, 1 °C, 9 days) was 7.3 cm and the Weight of root (0.0001 mg/l, 1 °C, 9 days) was 3.4 g. For the same compound, the Area of leaf (0.0001 mg/l, 1 °C, 12 days) was 13 cm^2, the Height (0.0001 mg/l, 1 °C, 12 days) was 7.4 cm and the Number of leaf (0.0001 mg/l, 1 °C, 12 days) was 3. The Number of tiller (0.0001 mg/l, 1 °C, 12 days) was 3, the Weight of root (0.0001 mg/l, 1 °C, 12 days) was 3.9 g and the Area of leaf (0.0001 mg/l, 2 °C, 3 days) was 10.2 cm^2. For the same compound, the Height (0.0001 mg/l, 2 °C, 3 days) was 7.1 cm, the Weight of root (0.0001 mg/l, 2 °C, 3 days) was 2.8 g and the Area of leaf (0.0001 mg/l, 2 °C, 6 days) was 11.7 cm^2. It also gave a Height (0.0001 mg/l, 2 °C, 6 days) of 7.2 cm, a Weight of root (0.0001 mg/l, 2 °C, 6 days) of 3.0 g and an Area of leaf (0.0001 mg/l, 2 °C, 9 days) of 12.6 cm^2. For the same compound, the Height (0.0001 mg/l, 2 °C, 9 days) was 7.3 cm, the Weight of root (0.0001 mg/l, 2 °C, 9 days) was 3.2 g and the Area of leaf (0.0001 mg/l, 2 °C, 12 days) was 13 cm^2. It also gave a Height (0.0001 mg/l, 2 °C, 12 days) of 7.5 cm, a Number of leaf (0.0001 mg/l, 2 °C, 12 days) of 3 and a Number of tiller (0.0001 mg/l, 2 °C, 12 days) of 3. For the same compound, the Weight of root (0.0001 mg/l, 2 °C, 12 days) was 3.9 g, the Area of leaf (0.0001 mg/l, 3 °C, 3 days) was 10.4 cm^2 and the Height (0.0001 mg/l, 3 °C, 3 days) was 7.1 cm. The Weight of root (0.0001 mg/l, 3 °C, 3 days) was 2.5 g, the Area of leaf (0.0001 mg/l, 3 °C, 6 days) was 12 cm^2 and the Height (0.0001 mg/l, 3 °C, 6 days) was 7.2 cm. For the same compound, the Weight of root (0.0001 mg/l, 3 °C, 6 days) was 2.6 g, the Area of leaf (0.0001 mg/l, 3 °C, 9 days) was 12.6 cm^2 and the Height (0.0001 mg/l, 3 °C, 9 days) was 7.5 cm. The Weight of root (0.0001 mg/l, 3 °C, 9 days) was 2.9 g, the Area of leaf (0.0001 mg/l, 3 °C, 12 days) was 13.2 cm^2 and the Height (0.0001 mg/l, 3 °C, 12 days) was 7.6 cm. For the same compound, the Number of leaf (0.0001 mg/l, 3 °C, 12 days) was 3, the Number of tiller (0.0001 mg/l, 3 °C, 12 days) was 2 and the Weight of root (0.0001 mg/l, 3 °C, 12 days) was 2.9 g. The Area of leaf (0.0001 mg/l, 4 °C, 3 days) was 10.6 cm^2, the Height (0.0001 mg/l, 4 °C, 3 days) was 7.1 cm and the Weight of root (0.0001 mg/l, 4 °C, 3 days) was 2.5 g. The Area of leaf (0.0001 mg/l, 4 °C, 6 days) was 12.2 cm^2, the Height (0.0001 mg/l, 4 °C, 6 days) was 7.3 cm and the Weight of root (0.0001 mg/l, 4 °C, 6 days) was 2.6 g. It also gave an Area of leaf (0.0001 mg/l, 4 °C, 9 days) of 13 cm^2, a Height (0.0001 mg/l, 4 °C, 9 days) of 7.5 cm and a Weight of root (0.0001 mg/l, 4 °C, 9 days) of 2.9 g. The Area of leaf (0.0001 mg/l, 4 °C, 12 days) was 13.4 cm^2, the Height (0.0001 mg/l, 4 °C, 12 days) was 7.7 cm and the Number of leaf (0.0001 mg/l, 4 °C, 12 days) was 3. For the same compound, the Number of tiller (0.0001 mg/l, 4 °C, 12 days) was 2, the Weight of root (0.0001 mg/l, 4 °C, 12 days) was 2.9 g and the Area of leaf (0.0001 mg/l, 5 °C, 3 days) was 10.6 cm^2. It also gave a Height (0.0001 mg/l, 5 °C, 3 days) of 7.2 cm, a Weight of root (0.0001 mg/l, 5 °C, 3 days) of 2.6 g and an Area of leaf (0.0001 mg/l, 5 °C, 6 days) of 12.4 cm^2. The Height (0.0001 mg/l, 5 °C, 6 days) was 7.4 cm, the Weight of root (0.0001 mg/l, 5 °C, 6 days) was 2.8 g and the Area of leaf (0.0001 mg/l, 5 °C, 9 days) was 13.6 cm^2. For the same compound, the Height (0.0001 mg/l, 5 °C, 9 days) was 7.5 cm, the Weight of root (0.0001 mg/l, 5 °C, 9 days) was 2.9 g and the Area of leaf (0.0001 mg/l, 5 °C, 12 days) was 14 cm^2. It also gave a Height (0.0001 mg/l, 5 °C, 12 days) of 7.8 cm, a Number of leaf (0.0001 mg/l, 5 °C, 12 days) of 3 and a Number of tiller (0.0001 mg/l, 5 °C, 12 days) of 2. The Weight of root (0.0001 mg/l, 5 °C, 12 days) was 3.0 g, the Area of leaf (0.001 mg/l, 1 °C, 3 days) was 10.1 cm^2 and the Height (0.001 mg/l, 1 °C, 3 days) was 6.9 cm. It also gave a Weight of root (0.001 mg/l, 1 °C, 3 days) of 2.8 g, an Area of leaf (0.001 mg/l, 1 °C, 6 days) of 11.3 cm^2 and a Height (0.001 mg/l, 1 °C, 6 days) of 7.1 cm. It also gave a Weight of root (0.001 mg/l, 1 °C, 6 days) of 3.1 g, an Area of leaf (0.001 mg/l, 1 °C, 9 days) of 12.6 cm^2 and a Height (0.001 mg/l, 1 °C, 9 days) of 7.3 cm. The Weight of root (0.001 mg/l, 1 °C, 9 days) was 3.4 g, the Area of leaf (0.001 mg/l, 1 °C, 12 days) was 13 cm^2 and the Height (0.001 mg/l, 1 °C, 12 days) was 7.3 cm. For the same compound, the Number of leaf (0.001 mg/l, 1 °C, 12 days) was 3, the Number of tiller (0.001 mg/l, 1 °C, 12 days) was 3 and the Weight of root (0.001 mg/l, 1 °C, 12 days) was 3.9 g. For the same compound, the Area of leaf (0.001 mg/l, 2 °C, 3 days) was 10.3 cm^2, the Height (0.001 mg/l, 2 °C, 3 days) was 6.9 cm and the Weight of root (0.001 mg/l, 2 °C, 3 days) was 2.8 g.
